Data on 13 compounds can be found in ChEMBL document CHEMBL1155129, “Hepatitis C NS5B polymerase inhibitors: 4,4-Dialkyl-1-hydroxy-3-oxo-3,4-dihydronaphthalene-3-yl benzothiadiazine derivatives” (Bioorg Med Chem Lett, 2008).

The structures appear in SMILES notation. Where only a bound is given, the exact number is not on record here.

Data set [1] can be described thus: Inhibition of HCV 1a NS5B polymerase. On the set-up: species or system Hepatitis C virus subtype 1a.
In data set [2] the test system is Hepatitis C virus. Kind of data set: Antiviral activity against HCV 1a in presence of 5% fetal calf serum by replicon based assay. The data set is classed as functional, organism-based, Hepacivirus hominis. Particulars: subtype 1a. (In general: In antiviral work, replicon cells carry a viral genome segment that copies itself.)
Data set [3] relates to Hepatitis C virus. Kind of data set: Antiviral activity against HCV 1b in presence of 5% fetal calf serum by replicon based assay. The data set is classed as functional, organism-based, Hepacivirus hominis. The following applies: genotype 1b.
In data set [4] the test system is Hepatitis C virus. Kind of data set: Inhibition of HCV 1b NS5B polymerase. On the set-up: species or system Hepatitis C virus subtype 1b.
Data set [5] in a line: Volume of distribution at terminal phase in rat at 5 mg/kg, iv. The data set is classed as ADME, organism-based. On the set-up: dose 5 mg/kg, route intravenous. Particulars: in vivo, read-out: Vbeta.
A short description of data set [6]: Plasma clearance in rat at 5 mg/kg, iv. The data set is classed as ADME, organism-based. Further details: dose 5 mg/kg, route intravenous.
The nature of data set [7]: Drug level in rat liver at 5 mg/kg, po after 1 hr. Particulars: read-out: Activity. On the set-up: dose 5 mg/kg, route oral. The data set is classed as ADME, organism-based.
Data set [8] is described as follows: Drug level in rat plasma at 5 mg/kg, po after 6 hrs. The data set is classed as ADME, organism-based. Further details: dose 5 mg/kg, route oral. The following applies: read-out: Activity.
A short description of data set [9]: Drug level in rat liver at 5 mg/kg, po after 12 hrs. The data set is classed as ADME, organism-based. On the set-up: dose 5 mg/kg, route oral. The following applies: read-out: Activity.
Data set [10] can be described thus: Drug level in rat liver at 5 mg/kg, po after 6 hrs. Particulars: read-out: Activity. Further details: dose 5 mg/kg, route oral. The data set is classed as ADME, organism-based.
Data set [11] can be described thus: Volume of distribution at steady state in rat at 5 mg/kg, iv. On the set-up: dose 5 mg/kg, route intravenous. The following applies: in vivo, read-out: Vdss. The data set is classed as ADME, organism-based.
The nature of data set [12]: Cmax in rat plasma at 5 mg/kg, po. The data set is classed as ADME, organism-based. Further details: dose 5 mg/kg, route oral.
A short description of data set [13]: Half life in rat at 5 mg/kg, po. On the set-up: dose 5 mg/kg, route oral. Particulars: in vivo. The data set is classed as ADME, organism-based.
Data set [14] in a line: AUC (0 to infinity) in rat at 5 mg/kg, po. Particulars: plasma. Further details: time infinity, dose 5 mg/kg, route oral. The data set is classed as ADME, organism-based.
A short description of data set [15]: Half life in rat at 5 mg/kg, iv. The data set is classed as ADME, organism-based. On the set-up: dose 5 mg/kg, route intravenous. Particulars: in vivo.
Data set [16] is described as follows: AUC (0 to infinity) in rat at 5 mg/kg, iv. The data set is classed as ADME, organism-based. On the set-up: time infinity, dose 5 mg/kg, route intravenous. Particulars: plasma.
The nature of data set [17]: Ratio of drug level in liver to plasma in rat at 5 mg/kg, po after 12 hrs. The data set is classed as ADME, organism-based. Further details: dose 5 mg/kg, route oral. The following applies: other tissue.
Data set [18] can be described thus: Oral bioavailability in rat at 5 mg/kg. The data set is classed as ADME, organism-based. Particulars: in vivo.
The nature of data set [19]: Tmax in rat at 5 mg/kg, po. Further details: dose 5 mg/kg, route oral. The data set is classed as ADME, organism-based. The following applies: in vivo.
Data set [20] can be described thus: Ratio of drug level in liver to plasma in rat at 5 mg/kg, po after 1 hr. The data set is classed as ADME, organism-based. Further details: dose 5 mg/kg, route oral. Particulars: other tissue.
A short description of data set [21]: Ratio of drug level in liver to plasma in rat at 5 mg/kg, po after 6 hrs. The data set is classed as ADME, organism-based. Further details: dose 5 mg/kg, route oral. The following applies: other tissue.
Data set [22] can be described thus: Drug level in rat plasma at 5 mg/kg, po after 12 hrs. The data set is classed as ADME, organism-based. Further details: dose 5 mg/kg, route oral. The following applies: read-out: Activity.
Data set [23] can be described thus: Drug level in rat plasma at 5 mg/kg, po after 1 hr. The following applies: read-out: Activity. The data set is classed as ADME, organism-based. On the set-up: dose 5 mg/kg, route oral.
The nature of data set [24]: Drug level in rat liver at 5 mg/kg, po after 24 hrs. The data set is classed as ADME, organism-based. On the set-up: dose 5 mg/kg, route oral. Particulars: read-out: Activity.

The IC50 is the concentration that inhibits the measured activity by half. The low end stands for higher potency, the high end for lower potency. Broadly, the EC50 is the concentration that produces a half-maximal response. Take `CC(C)CCC1(CCC(C)C)C(=O)C(C2=NS(=O)(=O)c3cc(OCC(N)=O)ccc3N2)=C(O)c2ccccc21`: in data set [1], the IC50 was determined as 320 nM. The EC50 was 10100 nM with Hepatitis C virus [2] and greater than 3000 nM in the data set on Hepatitis C virus [3].
For the compound `CC(C)CCn1c(=O)c(C2=NS(=O)(=O)c3ccccc3N2)c(O)c2ccccc21`, the IC50 in [1] is 540 nM. Also, in the data set on Hepatitis C virus [3], the EC50 came out at 250 nM.
The compound `CCCC1(CCC)C(=O)C(C2=NS(=O)(=O)c3ccccc3N2)=C(O)c2ccccc21` had an IC50 in [1] of 2200 nM.
As for `CCCCC1(CCCC)C(=O)C(C2=NS(=O)(=O)c3cc(OCC(N)=O)ccc3N2)=C(O)c2ccccc21`, the IC50 with Hepatitis C virus [4] amounted to 330 nM; in data set [1], 260 nM. Further, the values for the EC50 in the data set on Hepatitis C virus [2] and in the data set on Hepatitis C virus [3] were 9640 nM and 290 nM, respectively.
`CC1(C)C(=O)C(C2=NS(=O)(=O)c3cc(NS(C)(=O)=O)ccc3N2)=C(O)c2ccccc21`: the IC50 in the data set on Hepatitis C virus [4] amounted to 6260 nM; in data set [1] it was 930 nM.
`O=c1c(C2=NS(=O)(=O)c3ccccc3N2)c(O)c2ccccc2n1NC1CCC1`: the values for the IC50 (in the data set with Hepatitis C virus [4]; in data set [1]) were 480 nM and 280 nM, respectively. For the same compound, in the data set on Hepatitis C virus [3], the EC50 turned out to be 100 nM.
For the compound `CCCCC1(CCCC)C(=O)C(C2=NS(=O)(=O)c3ccccc3N2)=C(O)c2ccccc21`, the IC50 in the data set on Hepatitis C virus [4] was found to be 2270 nM; in [1] it was 990 nM.
Regarding `CCCC1(CCC)C(=O)C(C2=NS(=O)(=O)c3cc(NS(C)(=O)=O)ccc3N2)=C(O)c2ccccc21`, the IC50 came out at 130 nM with Hepatitis C virus [4] and 99 nM in data set [1]. For the same compound, the concentration giving a half-maximal response (EC50) with Hepatitis C virus [3] stood at 22 nM.
Usually clearance stands for the rate of elimination divided by the concentration. Broadly, the Cmax is the highest concentration seen after dosing. Broadly, the half-life is how long it takes for the measured level to halve. The AUC(0-inf) is total exposure, with the tail of the curve extrapolated. As usually defined, the bioavailability is dose-corrected exposure relative to a reference, in per cent. High values mean good availability, low ones poor availability. Broadly, the Tmax is the time at which the peak concentration occurs. For `CCCCC1(CCCC)C(=O)C(C2=NS(=O)(=O)c3cc(NS(C)(=O)=O)ccc3N2)=C(O)c2ccccc21`, the Vd in data set [5] worked out at 6.11 L/kg; in [11], 1.87 L/kg. The compound also showed a clearance in data set [6] of 11.7 mL/min/kg. The IC50 in the data set with Hepatitis C virus [4] amounted to 73 nM; in data set [1] it was 10 nM. The concentration at 1 h in data set [7] is 14200 ng/g; in data set [23], 450 ng/mL. Further, the concentration at 6 h amounted to 410 ng/mL in [8] and 20800 ng/g in data set [10]. The values for the concentration at 12 h in data set [9] and in data set [22] were 4600 ng/g and 250 ng/mL, respectively. In data set [12], this compound showed a Cmax of 580 ng/mL. In addition, the half-life in [13] and in data set [15] was 4.3 h each time. For the same compound, the AUC(0-inf) is 6400 ng·h/mL in data set [14] and 7300 ng·h/mL in [16]. For the same compound, the results for the Ratio in data set [17], in data set [20] and in data set [21] were 17.3 mL/g, 34.3 mL/g and 48.2 mL/g, respectively. Moreover, the EC50 in the data set on Hepatitis C virus [2] was found to be 280 nM; with Hepatitis C virus [3], 48 nM. Moreover, in data set [18], the bioavailability came out at 94.3%. Moreover, the time of peak concentration (Tmax) in data set [19] was determined as 3 h. In [24], the concentration at 24 h came to 150 ng/g.
With `CC(C)CCC1(CCC(C)C)C(=O)C(C2=NS(=O)(=O)c3ccccc3N2)=C(O)c2ccccc21`, the IC50 in data set [1] is 820 nM.
With `CC(C)CCC1(CCC(C)C)C(=O)C(C2=NS(=O)(=O)c3cc(NS(C)(=O)=O)ccc3N2)=C(O)c2ccccc21`, the concentration for half-maximal inhibition (IC50) is 390 nM with Hepatitis C virus [4] and 68 nM in data set [1].
In data set [1], `CCCC1(CCC)C(=O)C(C2=NS(=O)(=O)c3cc(OCC(N)=O)ccc3N2)=C(O)c2ccccc21` came in with an IC50 of 240 nM. Moreover, the EC50 with Hepatitis C virus [2] was greater than 10000 nM; with Hepatitis C virus [3], 810 nM.
Consider `CC1(C)C(=O)C(C2=NS(=O)(=O)c3ccccc3N2)=C(O)c2ccccc21`, for which the IC50 is 6260 nM in the data set on Hepatitis C virus [4] and 2200 nM in [1].
